According to patent publication US7776904B2, “Azabicyclo [3.1.0] hexylphenyl derivatives as modulators of dopamine D3 receptors” (Glaxo Group Limited, priority 2005, dated 2010):

Molecular target: T1, dopamine D3 receptor (Homo sapiens, UniProt P35462)
T1 construct: expressed in transfected cells; membranes prepared from them
Test: GTPγS scintillation proximity assay (GTPγS-SPA), CHO_D3 cell membranes
Type: biochemical
Settings: Enantiomer 2 compared with Enantiomer 1 of Example 1
Method: Functional potency and intrinsic activity of compounds of this invention can be measured by the following GTPγS scintillation proximity assay (GTPγS-SPA). Cells used in the study are Chinese Hamster Ovary (CHO) Cells.
Compounds may be tested according to two alternative protocols:
a) Cell membranes are prepared as follows. Cell pellets are resuspended in 10 volumes of 50 mM HEPES, 1 mM EDTA pH 7.4, using KOH. On the day the following proteases are added to the buffer just prior to giving the homogenisation buffer.
The cells are homogenised by 2×15 second bursts in a 1 litre Glass Waring blender in a class two biohazard cabinet. The resulting suspension is spun at 500 g for 20 mins (Beckman T21 centrifuge: 1550 rpm). The supernatant is withdrawn with a 25 ml pipette, aliquotted into pre-chilled centrifuge tubes and spun at 48,000 g to pellet membrane fragments (Beckman T1270: 23,000 rpm for 30 mins). The final 48,000 g pellet is resuspended in Homogenisation Buffer, (4× the volume of the original cell pellet). […] Protein content in the membrane preparations is evaluated with the Bradford protein assay.
The final top concentration of test drug is 3 uM in the assay and 11 points serial dilution curves 1:4 in 100% DMSO are carried out using a Biomek FX. […] Assay plates are counted on a Viewlux, 613/55 filter, for 5 min., between 2-6 hours after the final addition. […]

T1 sequence (P35462 whole entry, species assumed): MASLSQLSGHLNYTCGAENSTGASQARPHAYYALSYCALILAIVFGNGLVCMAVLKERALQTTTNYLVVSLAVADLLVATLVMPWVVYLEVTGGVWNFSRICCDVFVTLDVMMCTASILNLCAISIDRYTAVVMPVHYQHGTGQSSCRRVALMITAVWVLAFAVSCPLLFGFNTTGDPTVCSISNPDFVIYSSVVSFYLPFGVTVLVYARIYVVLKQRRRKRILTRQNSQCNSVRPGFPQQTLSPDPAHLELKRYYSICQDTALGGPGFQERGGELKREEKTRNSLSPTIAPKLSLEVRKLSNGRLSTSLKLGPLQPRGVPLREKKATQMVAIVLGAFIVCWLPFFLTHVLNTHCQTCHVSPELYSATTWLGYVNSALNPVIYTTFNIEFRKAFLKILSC

In the case of `CC(C)c1ccc(S(=O)(=O)Nc2ccc(C34CNCC3C4)cc2)cc1.Cl` (single isomer, unassigned; enantiomer 2) [Enantiomer 2, N-{4-[(1R,5R or 1S,5R)-3-azabicyclo[3.1.0]hex-1-yl]phenyl}-4-(1-methylethyl)benzenesulfonamide hydrochloride], the “fpki (D3) difference, higher than Enantiomer 1” value is reported as greater than 1 log-unit.
